Results published in patent US10071077B2, “Use of enoximone in the treatment of atopic immune-related disorders, in pharmaceutical composition as well as in pharmaceutical preparation” (BREAKTHROUGH MEDICAL RESEARCH B.V., priority 2014, dated 2018).

Legend:
patients with asthma = experiment: Trials 1-3: treatment of asthma patients with enoximone; assay type: in vivo, human
Experimental: A patient was to be operated in connection with a mammary carcinoma. They had known difficult-to-treat asthma and before the operation they received 30 mg prednisone per day as extra medication in addition to their beta-2 agonists and parasympatholytics treatment, but their breathing remained considerably obstructed. Ten minutes before the start of the anaesthesia they were given 25 mg enoximone intravenously. […] Ultimately, after a single administration of enoximone, they stayed symptom-free for two months. Based on the above experience, a second patient was treated. According to their lung specialist, they suffered from untreatable asthma and had been completely bed-ridden for a long time, among other reasons due to high doses of the traditional medication (next to some other drugs they received 50 mg prednisone per day). Inhalation therapy worked for a few minutes only due to the severe bronchoconstriction, the drying of the airways and the consequential sticky obstructive mucus. The patient received 20 mg enoximone orally in two doses of 10 mg at a 15 minutes interval. […] They remained symptom-free for 7 days. During the first day after the first administration, the patient coughed a lot, which loosened the sticky mucus. After 7 days, they received another 10 mg dose of enoximone orally, after which they again remained symptom-free for 7 days. They were ultimately able to drastically reduce their prednisone use to 5 mg per day (complete phasing out was not possible in connection with their Mixed Connected Tissue Disease). They were able to build up their condition relatively quickly with a maintenance dose of 10 mg of enoximone once every 4 days. After 3 months, they were able to perform their normal household activities again and go back to work. After another month, they were even able to do some sport with caution. Following trials 1 and 2, several patients with light to severe asthma symptoms, who up to that time had been treated exclusively with the traditional therapy with little or no results, were also treated with enoximone. […] Their individual dosage depended on the severity of the disorder. The dosage ranged from 0.1 to 0.3 mg/kg body weight, mostly in a maintenance dosage of twice a week, based on the time of recurrence of the symptoms.

[1] = test system: HDM allergic airway inflammation; experiment: HDM asthma model, lower enoximone treatment frequency; assay type: in vivo, mice
Experimental: To induce airway inflammation, mice were anaesthetized with isofluorane and treated intratracheally (i.t.) with 1-10 μg house dust mite (HDM; Greer Laboratories) allergen extract in 80 μL phosphate buffered saline (PBS) on day 0 or using PBS only. Ten days later, anesthetized mice were challenged with 1-10 μg HDM in 50 μL PBS intranasally (i.n.) for 5 consecutive days. Mice were sacrificed 24 hr after last challenge and broncho alveolar lavage was performed by flushing the lungs 3 times with 1 ml PBS containing Ethylenediaminetetraacetic acid (EDTA, Sigma-Aldrich).
Next we investigate if it is possible to lower the active enoximone treatment frequency when given it admixed to the HDM challenge solution (FIG. 2A). We compare the daily treatment frequency with once in two days (each other day) and once in three days. Mice treated with HDM admixed with diluent show clear eosinophilic airway inflammation (FIG. 2B). […] Moreover along this line also numbers of T-cells drop when treated with enoximone (FIG. 2B). […] Moreover the proportion of IL-4 producing T-cells is lower when enoximone is given less frequently than daily (FIG. 3).
(A) Experimental HDM asthma design showing intratracheal sensitisation (s) of 10 μg HDM or PBS as control and challenge (c) with 10 μg HDM intra nasal. The following schedules were used diluent (d) (5 μl) during challenge (for 5 days ddddd), enoximone (5 μl 5 mg/ml) during challenge (for 5 days eeeee), enoximone once in two days (edede) or (deded) and once in three days enoximone (edded). (B) Total cells and quantification of flow cytometric analyses of eosinophils and CD4 T-cells in BAL of PBS treated (black bars) and several frequencies of enoximone treated mice (gray bars). Results are expressed as means±SEM.
FIG. 3 Quantification of flow cytometric analyses of cytokine producing CD4 T-cells and proportion of IL-4 positive CD4 T-cells in BAL. Results are expressed as means±SEM. n=3-8 animals per group. Statistical evaluations were performed only between different treatments of groups (*p<0.05).

[2] = test system: HDM driven allergic airway inflammation; experiment: House dust mite (HDM) allergic airway inflammation model, treatment strategy 1 (allergy induction); assay type: in vivo, C57bl/6 mice; conditions: orally (2.5 and 0.25 μg), treatment during challenge, FIG. 5B

## CSc1ccc(C(=O)c2[nH]c(=O)[nH]c2C)cc1 [enoximone, 1,3-dihydro-4-methyl-5-[4-(methylthio)benzoyl]-2H-imidazol-2-on]
Patients with asthma; Trial 1: after a single administration of 25 mg intravenously
  symptom-free period: two months
Patients with asthma; Trial 1: person, difficult-to-treat asthma, 25 mg intravenously
  time to disappearance of asthma symptoms: within a few minutes
Patients with asthma; Trial 2: after 20 mg orally in two doses of 10 mg at a 15 minutes interval
  symptom-free period: 7 days
Patients with asthma; Trial 2: after another 10 mg dose orally after 7 days
  symptom-free period: 7 days
Patients with asthma; Trial 2: maintenance dose of 10 mg once every 4 days
  time until able to perform normal household activities and go back to work: 3 months
Patients with asthma; Trial 2: previously 50 mg prednisone per day
  prednisone use after reduction: 5 mg per day
Patients with asthma; Trial 2: untreatable asthma, after first oral dose of 10 mg
  time to disappearance of asthma symptoms: within two minutes
Patients with asthma; Trial 3: 0.1 to 0.3 mg/kg body weight, mostly twice a week
  progress of patients with light to severe asthma symptoms: remarkable and fast progress
Patients with asthma; Trial 3: five patients
  allergic and immune-related symptoms: substantially milder or even disappeared altogether
Patients with asthma; administered orally in cases of asthma
  time to improved breathing: within ten minutes
Patients with asthma; all the patients treated
  time to reaction: within a few minutes
Patients with asthma; all the patients treated, after only one dose
  symptom-free period: remained days or weeks symptom-free
Patients with asthma; as maintenance medication
  duration of improvement of the dyspnoea symptoms: from a few days to several weeks or several months
Patients with asthma; compared with the half life of 4 hours
  duration of the effects of the compound: lasting well beyond a month
Patients with asthma; disappeared after one day, lowering the dose offered a solution
  side effects: two patients reported headaches on the day of intake
Patients with asthma; intravenous administration in cases of asthma
  time to improved breathing: within as little as one minute
[1]; 25 μg enoximone admixed with HDM challenge, FIG. 2B
  numbers of T-cells in BAL: drop
[1]; 25 μg enoximone admixed with HDM challenge, FIG. 3
  number of cytokine (IL-4, IL-5, IL-13, IL-17 and IFNγ) producing T-cells in BAL: drop in number
[1]; 25 μg enoximone admixed with HDM challenge, given every day, FIG. 2B
  eosinophilic inflammation: clear reduction
[1]; 25 μg enoximone admixed with HDM challenge, once in three days, FIG. 2B
  eosinophilic inflammation: clear reduction
[1]; 25 μg enoximone admixed with HDM challenge, once in two days (each other day), FIG. 2B
  eosinophilic inflammation: clear reduction
[1]; enoximone given less frequently than daily, FIG. 3
  proportion of IL-4 producing T-cells: lower
[2]
  eosinophil numbers in BAL, HDM/PBS treated mice compared to enoximone treated mice: significantly higher
